The values that follow come from patent US8911605B2, “Method for antibiotic susceptibility testing and determining minimum inhibitory concentration of the antibiotic” (National Cheng Kung University, priority 2011, dated 2014).

Structures are written as SMILES. Values after ≈ are worked out from the molar mass of the structure shown.

The subject of assay [1] is E. coli w958. Nature of the assay: Conventional broth dilution method. Type of assay: cell-based. The note with it: Escherichia coli, 0-16 μg/mL tested, read-out: inhibitory concentration (MIC). The procedure:
(§1) In order to confirm that the results from Example 3 of the present invention are not different from those from a conventional method, a broth dilution method was carried out on E. coli ATCC 25922, w958, and BCRC 15501 at 0 μg/mL, 0.5 μg/mL, 1 μg/mL, 2 μg/mL, 4 μg/mL, 8 μg/mL, 16 μg/mL of cefazolin. The results are shown in FIGS. 6 (a) to (c), wherein No denotes no bacteria.

Assay [2] concerns E. coli ATCC 25922. Nature of the assay: Conventional broth dilution method. The format is cell-based. The note with it: Escherichia coli, ATCC25922, 0-16 μg/mL tested, read-out: inhibitory concentration (MIC). The procedure: as §1
Assay [3] relates to E. coli BCRC 15501. Nature of the assay: Conventional broth dilution method. The format is cell-based. The note with it: Escherichia coli, BCRC15501, 0-16 μg/mL tested, read-out: inhibitory concentration (MIC). The procedure:
as §1

In assay [4] the test system is E. coli ATCC 25922. Nature of the assay: Dielectrophoretic test (cell elongation, crossover frequency). Type of assay: cell-based, Escherichia coli. The note with it: for dielectrophoretic behaviour and cell elongation: alternating current frequency 600 kHz. How it is done:
Phosphate-buffered saline (PBS) containing 137 mM NaCl, 2.7 mM KCl, 4.3 mM Na2HPO4, and 1.47 mM KH2PO4 at pH 7.4 was prepared. An oral β-lactam antibiotic, cephalexin (Sigma, USA), which generally is used in the treatment of urinary tract infection (UTI), was dissolved in 1×PBS and prepared into a stock concentration of 1024 μg/mL. This stock concentration was diluted with trypticase soy broth (TBS) into 4 μg/mL and 32 μg/mL.
Among different cell lines of Escherichia coli causing urinary infection, E. coli ATCC 25922 was selected and cultured with TBS under shaking at 37° C. Then, the bacterial concentration of the culture suspensions was adjusted to 1.5×10^6 cells/ml by a densitometer (VITEK 2, BioMérieux).
(§2) The bacterial suspension (100 μl) and TBS culture media (containing the antibiotic at different concentrations, 900 μl) were mixed ([…]) and incubated at 37° C. in a shaking incubator for 60 minutes. After the treatment, the bacterial suspensions (500-1000 μl) were centrifugated at 3000-5000 rpm for 3-5 minutes. The supernatant of the bacterial suspensions was removed. Finally, 0.2 M 4-(2-hydroxyethyl)-1-piperazineethanesulfonic acid (HEPES) buffer (500 μl, σ=3 mS/cm, Invitrogen 15630) was added to the remaining bacteria and the formed bacterial suspensions were shaken using a vortex mixer (Shin Kwang, Taiwan) for 30 seconds to avoid aggregation of the bacteria for the following dielectrophoretic tests.
(§3) The bacterial suspensions (5 μl) were pipetted into a sample well of the chip of Preparation Example 1. The electrode array was then connected to a function generator (Fluke 284 USA) and supplied with an alternating current signal or dielectrophoresis. The frequency of E. coli migrating from the electrode center to the electrode edge, was determined as crossover frequency (cof). During dielectrophoresis, the images were observed and recorded through an inverted microscope (Olympus IX70, Japan) and a CCD camera (Microfire, Optronics).
In the same manner as that of Example 1, the antibiotic solutions at 1 μg/mL, 2 μg/mL, 4 μg/mL, 8 μg/mL, 16 μg/mL, 32 μg/mL, and 64 μg/mL were prepared and their action periods of time were 30, 60, and 120 minutes. In addition, the chip of Preparation Example 2 was used in the analysis. For measurement of the cell length of E. coli during dielectrophoresis, when the bacteria were straightly arranged on an ITO quadruple electrode by field-induced dielectrophoretic force, the cell length was analyzed by the image software (FreePlus32).
(§4) In the same manner as that of Example 1, a cefazolin solution at 2 μg/mL was prepared and used to act on E. coli ATCC 25922, w958, and BCRC 15501 for 120 minutes for the following dielectrophoretic testing. Among these cell lines, E. coli w958 from National Cheng Kung University Hospital in Taiwan is a drug-resistant bacterium isolated from clinical samples.

Assay [5] concerns E. coli w958. Briefly: Dielectrophoretic test (cell elongation). The format is cell-based, Escherichia coli. The note with it: cefazolin 2 μg/mL, 120 minutes. The procedure: as §2, §3, §4
The subject of assay [6] is E. coli BCRC 15501. Briefly: Dielectrophoretic test (cell elongation). The format is cell-based, Escherichia coli. The note with it: cefazolin 2 μg/mL, 120 minutes. How it is done:
as §2, §3, §4

Another assay has as its system E. coli. Nature of the assay: Conventional agar dilution method. Type of assay: cell-based. Particulars: Escherichia coli. From the text: In order to confirm that the MIC determined in Example 2 of the present invention is not different from that determined in conventional methods, an agar dilution method was used to determine the MIC of cephalexin to E. coli.

For `Cc1nnc(SCC2=C(C(=O)O)N3C(=O)[C@@H](NC(=O)Cn4cnnn4)[C@H]3SC2)s1` [cefazolin], the values for the MIC in the assay with E. coli w958 [1], in the assay on E. coli ATCC 25922 [2] and with E. coli BCRC 15501 [3] were greater than 16 µg/mL, 2 µg/mL (≈ 4.4 µM) and 2 µg/mL (≈ 4.4 µM), respectively. Further, the cell elongation result is reported as “obvious cell elongation occurs” with E. coli ATCC 25922 [4] (cefazolin 2 μg/mL, 120 minutes) and “obvious cell elongation occurs” in the assay on E. coli BCRC 15501 [6]. Further, the “drug resistance of the bacterium” value with E. coli ATCC 25922 [4] (cefazolin 2 μg/mL, 120 minutes) was “not resistant to cefazolin”; with E. coli w958 [5], “resistant to cefazolin”; in the assay with E. coli BCRC 15501 [6], “not resistant to cefazolin”. In addition, in the assay with E. coli w958 [5], the morphological cell elongation entry is given as “morphological cell elongation is unobvious”.

As for `CC1=C(C(=O)O)N2C(=O)[C@@H](NC(=O)[C@H](N)c3ccccc3)[C@H]2SC1` [cephalexin], the MIC against E. coli was 32 to 64 µg/mL (≈ 92.1 to 184 µM); in the assay with E. coli ATCC 25922 [4] (Escherichia coli, ATCC25922, 1 h, determined by dielectrophoresis, 60 minutes, read-out: minimum inhibitory concentration (MIC)), 32 µg/mL (≈ 92.1 µM). Moreover, the “crossover frequency (cof)” value with E. coli ATCC 25922 [4] (32 μg/mL for 60 minutes) was “about 600 kHz”. In addition, in the assay with E. coli ATCC 25922 [4] (1-64 μg/mL, 30, 60, 120 minutes, FIGS. 3 (a) and (c)), the cell length result is “cell length increases as the concentration and action time increase”. In addition, the morphological cell elongation entry in the assay on E. coli ATCC 25922 [4] (FIG. 2 (c), text prints 60 minutes, figure legend 120 minutes) is listed as “morphological cell elongation occurs obviously even at a low concentration of the antibiotic”; with E. coli ATCC 25922 [4] (antibiotic treatment for 60 minutes, FIG. 2 (b)), “morphological cell elongation occurs obviously as the antibiotic concentrations increase”. In addition, the cell elongation entry in the assay with E. coli ATCC 25922 [4] (antibiotic 4 μg/ml, 60 minutes, alternating current frequency 4 MHz) is listed as “some bacteria are slightly elongated”; with E. coli ATCC 25922 [4] (antibiotic 32 μg/ml for 1 hour, alternating current frequency 4 MHz) it was “all bacteria have become elongated”. Moreover, the “dielectrophoretic behaviour and cell elongation” value in the assay on E. coli ATCC 25922 [4] (antibiotic 4 μg/ml, 60 minutes) was “some bacteria are still arranged at the center of the electrodes by negative dielectrophoretic force. However, the others are adsorbed at the edges of the electrode by positive dielectrophoretic force and slightly elongated”; in the assay on E. coli ATCC 25922 [4] (antibiotic 32 μg/ml for 1 hour) it was “all bacteria are adsorbed at the edges of the electrode by positive dielectrophoretic force and have become elongated”. Moreover, in the assay with E. coli ATCC 25922 [4] (antibiotic treatment for 30 minutes, FIG. 2 (a)), the “morphological changes in bacteria” value is recorded as “distinction between morphological changes in bacteria is difficult”.
